US11213524B2, “Pharmaceutical compositions for subcutaneous administration of levosimendan” (Tenax Therapeutics, Inc., priority 2018, dated 2022)
One block for each molecule: values may come before it.

Assays:
[1] = Solubility of levosimendan at different Captisol concentrations (HPLC); format: physicochemical; conditions: 10 mM phosphate buffer, pH 7, Captisol 0, 50, 100, 200, 400 mg/ml, room temperature
Method: A study was conducted to evaluate the impact of the concentration of the cyclodextrin or cyclodextrin derivative on the solubility of levosimendan. In particular, the study focused on the cyclodextrin derivative, Captisol® (sulfobutylether beta-cyclodextrin).
The study compared compositions comprising levosimendan, 10 mM phosphate buffer, and Captisol® at the following concentrations: 0 mg/ml (i.e., no Captisol®), 50 mg/ml, 100 mg/ml, 200 mg/ml, and 400 mg/ml. The compositions with Captisol® were prepared by mixing the levosimendan and Captisol®, and adding the 10 mM phosphate buffer until the pH of the composition was 7. The compositions were stored at room temperature.
Captisol®'s impact on the solubility of levosimendan was determined using HPLC.

[2] = Storage stability of lyophilized levosimendan/Captisol composition (HPLC % area); format: physicochemical; conditions: for quantity of OR-1420: after 6 months
Method: A study was conducted to determine the stability of a levosimendan composition of the present invention stored under different conditions for up to six months.
The composition used for the study comprised 3 mg/ml of levosimendan and 200 mg/ml of Captisol®. To prepare the composition, the levosimendan and Captisol® were mixed together, adjusted to a pH of 7.4 using 1N NaOH, and then lyophilized.
Samples were dissolved in 50% acetonitrile and stored frozen at approximately −20° C. The compositions were analyzed at the following time points: 0, 1-month, 2-months, 4-months, and 6-months. The compositions were taken out of storage and reconstituted using distilled water. A sample from each composition was diluted at 15x-150x and analyzed using HPLC (Sciex API 3200 Linear Ion Trap, Shimadzu LC-20ADVP HPLC Pumps, Shimadzu Controller SCL-10AVP, Shimadzu Autosampler SIL-20ADVP) under the following conditions: Column, Restek Raptor Biphenyl, 2.7 μm, 100×3 mm; Mobile phase A, 5 mM Ammonium Formate/0.1% FA in H2O; Mobile phase B, 100% methanol).

[3] = Pharmacokinetic study, IV vs subcutaneous dosing, plasma levosimendan and OR-1896 by HPLC/MS/MS; conditions: male, Sprague Dawley, rat, in vivo
Method: A pharmacokinetic study was conducted in male Sprague Dawley rats to compare subcutaneous administration of a composition of the present invention with IV administration of a formulation of levosimendan. The study evaluated levosimendan blood levels and pain at the injection site.
This study involved comparing the results of administering two subcutaneous compositions according to embodiments of the present invention to a previous pharmacokinetic study in which male rats were dosed by tail vein levosimendan as an IV bolus injection at 0.5 mg/kg using a 0.25 mg/ml solution. […]
Plasma samples were analyzed for levosimendan and OR-1896 (the primary metabolite) by HPLC/MS/MS. […]

[4] = cited from earlier work
[5] = after four months, 25° C./60% RH
[6] = after six months, 25° C./60% RH

SMILES: C[C@@H]1CC(=O)NN=C1c1ccc(NN=C(C#N)C#N)cc1 [levosimendan, (−)-enantiomer of [[4-(1,4,5,6-tetrahydro-4-methyl-6-oxo-3-pyridazinyl)phenyl]hydrazono]prop anedinitrile]
solubility of levosimendan [1]: increased as the concentration of Captisol® increased | Levels of Levosimendan (% Area) ([2]; 3 mg/ml levosimendan, 200 mg/ml Captisol, lyophilized, T0): 99.98% Area | Levels of Levosimendan (% Area) ([2]; 5° C., 1-month): 99.85% Area | Levels of Levosimendan (% Area) ([2]; 5° C., 2-months): 100.00% Area | Levels of Levosimendan (% Area) ([2]; 5° C., 4-months): 99.74% Area | Levels of Levosimendan (% Area) ([2]; 5° C., 6-months): 99.73% Area | Levels of Levosimendan (% Area) ([2]; 25° C./60% RH, 1-month): 99.75% Area | Levels of Levosimendan (% Area) ([2]; 25° C./60% RH, 2-months): 99.79% Area | Levels of Levosimendan (% Area) ([2]; 25° C./60% RH, 4-months): 99.51% Area | Levels of Levosimendan (% Area) ([2]; 25° C./60% RH, 6-months): 99.49% Area | Levels of Levosimendan (% Area) ([2]; 40° C./75% RH, 1-month): 99.51% Area | Levels of Levosimendan (% Area) ([2]; 40° C./75% RH, 4-months): 98.88% Area | Levels of Levosimendan (% Area) ([2]; 40° C./75% RH, 6-months): 98.37% Area | Level of Degradants (% Area) ([2]; after four months, 5° C.): 99.91 % Area | Level of Degradants (% Area) [2, 5]: 99.64 % Area | Level of Degradants (% Area) ([2]; after four months, −20° C.): 99.93 % Area | Level of Degradants (% Area) ([2]; after six months, 5° C.): 99.90 % Area | Level of Degradants (% Area) [2, 6]: 99.57 % Area | level of levosimendan ([2]; each storage condition, after six months): over 98% | Levels of Levosimendan (% Area) ([2]; −20° C., 1-month): 99.83% Area | Levels of Levosimendan (% Area) ([2]; −20° C., 4-months): 99.79% Area | Levels of Levosimendan (% Area) ([2]; −20° C., 6-months): 99.72% Area | Levels of Levosimendan (% Area) ([2]; −80° C., 1-month): 99.82% Area | Levels of Levosimendan (% Area) ([2]; −80° C., 4-months): 99.74% Area | Levels of Levosimendan (% Area) ([2]; −80° C., 6-months): 99.74% Area | start of the β phase (loss of drug from blood mainly due to metabolism) [3]: about 2 hours | share of total levosimendan dose reduced in the intestine to OR-1855 (minor pathway) ([4]; in vivo): approximately 6% | terminal elimination half-life of levosimendan ([4]; in vivo): about 1 hour

Level of OR-1420 (% Area) ([2]; 5° C., 1-month): 0.055% Area | Level of OR-1420 (% Area) ([2]; 5° C., 4-months): 0.057% Area | Level of OR-1420 (% Area) ([2]; 5° C., 6-months): 0.112% Area | Level of OR-1420 (% Area) ([2]; 25° C./60% RH, 1-month): 0.155% Area | Level of OR-1420 (% Area) ([2]; 25° C./60% RH, 2-months): 0.212% Area | Level of OR-1420 (% Area) ([2]; 25° C./60% RH, 4-months): 0.285% Area | Level of OR-1420 (% Area) ([2]; 25° C./60% RH, 6-months): 0.377% Area | Level of OR-1420 (% Area) ([2]; 40° C./75% RH, 1-month): 0.436% Area | Level of OR-1420 (% Area) ([2]; 40° C./75% RH, 4-months): 0.999% Area | Level of OR-1420 (% Area) ([2]; 40° C./75% RH, 6-months): 1.420% Area | quantity of OR-1420 ([2]; 40° C./75% RH): below 1.5% | Level of OR-1420 (% Area) ([2]; T0): 0.021% Area | Level of Degradants (% Area) ([2]; after four months, 5° C.): 0.057 % Area | Level of Degradants (% Area) [2, 5]: 0.285 % Area | Level of Degradants (% Area) ([2]; after four months, 40° C./75% RH): 0.999 % Area | Level of Degradants (% Area) ([2]; after four months, −20° C.): 0.045 % Area | Level of Degradants (% Area) ([2]; after four months, −80° C.): 0.084 % Area | Level of Degradants (% Area) ([2]; after six months, 5° C.): 0.112 % Area | Level of Degradants (% Area) [2, 6]: 0.377 % Area | Level of Degradants (% Area) ([2]; after six months, 40° C./75% RH): 1.42 % Area | Level of Degradants (% Area) ([2]; after six months, −20° C.): 0.082 % Area | Level of Degradants (% Area) ([2]; after six months, −80° C.): 0.083 % Area | quantity of OR-1420 ([2]; all other storage conditions): less than 0.5% | Level of OR-1420 (% Area) ([2]; −20° C., 1-month): 0.050% Area | Level of OR-1420 (% Area) ([2]; −20° C., 4-months): 0.045% Area | Level of OR-1420 (% Area) ([2]; −20° C., 6-months): 0.082% Area | Level of OR-1420 (% Area) ([2]; −80° C., 1-month): 0.055% Area | Level of OR-1420 (% Area) ([2]; −80° C., 4-months): 0.084% Area | Level of OR-1420 (% Area) ([2]; −80° C., 6-months): 0.083% Area
SMILES: C[C@@H]1CC(=O)NN=C1c1ccc(N/N=C(\C#N)C(N)=O)cc1 [OR-1420]

SMILES: CC(=O)Nc1ccc(C2=NNC(=O)C[C@H]2C)cc1 [OR-1896]
time at which maximum concentrations of OR-1896 are seen ([4]; after starting a 24-hour infusion): 2 to 4 days | half-life of OR-1896 ([4]; heart failure patients): 70 to 80 h
